The target of this test is T1, IL-17A/A (Homo sapiens, UniProt Q16552).
T1 construct: purchased Genscript Z03228
T1 sequence (Q16552 24-155): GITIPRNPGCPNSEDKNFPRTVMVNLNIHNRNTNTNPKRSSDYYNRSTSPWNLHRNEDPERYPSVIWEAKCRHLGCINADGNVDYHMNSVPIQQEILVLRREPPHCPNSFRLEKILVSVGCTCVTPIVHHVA
The experiment in a line: IL-17A/A HEK-Blue Cell Assay. It counts as cell-based. As to conditions: HEK-Blue IL-17A reporter cell line, SEAP readout at A630, 20 hours incubation with IL-17A/A, top concentration 10 uM, 1 uM or 0.3 uM; for IC50: read-out: IL-17A/A inhibition (pIC50) (converted).

As for `CCC(=O)N[C@@H](C(=O)N1CCN(C)CC1)[C@@H](C)c1ccc(NC(=O)C(NC(=O)c2ccnn2CC)C(C)C2CCC(C)CC2)c(F)c1` (single isomer, unassigned) [Compound 585], the “IL-17A/A inhibition (pIC50)” value was “X2a (compounds were evaluated up to 1 uM and did not inhibit activity by >80%, however they showed some activity at 1 uM (less than 80% and more than 20%))”. As for `CCC(=O)NC(C(=O)N1CCN(Cc2ccccc2)CC1)C(C)c1ccc(NC(=O)[C@@H](NC(=O)c2ccnn2CC)[C@H]2CC[C@H](C)CC2)c(F)c1` (single isomer, unassigned) [Compound 663], the “IL-17A/A inhibition (pIC50)” value is “X3b (compounds were evaluated up to 0.3 uM and inhibited activity at 0.3 uM by less than 20%)”. For the molecule `CCn1nccc1C(=O)N[C@H](C(=O)Nc1ccc([C@H](C)[C@@H](NC(=O)C(C)C2CC2)C(=O)N2CCN(C)C(C)(C)C2)cc1F)[C@H]1CC[C@H](C)CC1` (stereo partly drawn) [Compound 432], the IC50 was less than 0.01 µM.

Take `CCC(=O)N[C@@H](C(=O)N1CCN(C)CC1)[C@@H](C)c1ccc(NC(=O)[C@@H](NC(=O)c2conc2C2CC2)C2CCCCCC2)c(F)c1` [Compound 269]: the IC50 is less than 0.01 µM. In the case of `CCn1nccc1C(=O)N[C@H](C(=O)Nc1ccc([C@H](C)[C@@H](NC(=O)NC2CC2)C(=O)N2CCN(C)CC2)cc1F)[C@H]1CC[C@H](C)CC1` [Compound 404], the “IL-17A/A inhibition (pIC50)” value is recorded as “B (8>B≥7 as B)”. Consider `CCC(=O)N[C@@H](C(=O)N1CCN(C)CC1)[C@@H](C)c1ccc(NC(=O)[C@@H](NC(=O)C(F)(F)c2cccc(C#N)c2)C2CCCCCC2)c(F)c1` [Compound 260], for which the IC50 is less than 0.01 µM. Same read-out and setting: next, `CCC(=O)N[C@@H](C(=O)N1CCN(C)CC1)[C@@H](C)c1ccc(NC(=O)[C@@H](NC(=O)c2nonc2CC)[C@H](OC)c2ccc(F)cc2)c(F)c1` [Compound 611]: 0.01 to 0.1 µM. As to `CCC(=O)N[C@@H](C(=O)N1CCN(C(C)(C)O)CC1)[C@@H](C)c1ccc(NC(=O)[C@@H](NC(=O)c2ccnn2CC)[C@H]2CC[C@H](C)CC2)c(F)c1` [Compound 424], the “IL-17A/A inhibition (pIC50)” value is “B (8>B≥7 as B)”. Take `CCC(=O)N[C@H](C(=O)N1CCN(C)CC1)[C@H](C)c1ccc(NC(=O)[C@@H](NC(=O)c2ccnn2CC)[C@H]2CC[C@H](C)CC2)c(F)c1` [Compound 542]: the “IL-17A/A inhibition (pIC50)” value is “X3b (compounds were evaluated up to 0.3 uM and inhibited activity at 0.3 uM by less than 20%)”.

As to `CCC(=O)N[C@H](C(=O)N1CCN(C)CC1)[C@H](C)c1ccc(NC(=O)[C@@H](NC(=O)c2ccnn2CC)[C@@H](C)OC2CCCCC2)c(F)c1` [Compound 389], the IC50 is 0.01 to 0.1 µM. The same measure, in the same setting: next, `CCC(=O)N[C@@H](C(=O)N[C@@H](C)C1CC1)[C@@H](C)c1ccc(NC(=O)[C@@H](NC(=O)c2ccnn2CC)[C@H]2CC[C@H](C)CC2)c(F)c1` [Compound 344]: 0.01 to 0.1 µM. Turning to `CCC(=O)N[C@H](Cc1ccc(NC(=O)[C@@H](NC(=O)c2ccnn2CC)C2CCCCC2)c(F)c1)C(=O)NCCN(C)C` [Compound 749], the “IL-17A/A inhibition (pIC50)” value is “X2a (compounds were evaluated up to 1 uM and did not inhibit activity by >80%, however they showed some activity at 1 uM (less than 80% and more than 20%))”. On to `CCC(=O)N[C@@H](C(=O)N1CCN(CCO)CC1)[C@@H](C)c1ccc(NC(=O)[C@@H](NC(=O)c2nonc2CC)[C@H]2CC[C@H](C)CC2)c(F)c1` [Compound 445], for which the IC50 was 0.01 to 0.1 µM. On to `CCC(=O)N[C@H](Cc1ccc(NC(=O)[C@@H](NC(=O)c2ccnn2CC)C2CCCCC2)c(F)c1)C(=O)N1CCN(C2COC2)CC1` [Compound 770], for which the IC50 is 0.1 to 10 µM. On the same count and under the same terms, the figure for `CCC(=O)N[C@@H](C(=O)N1CCN(Cc2ccccn2)CC1)[C@@H](C)c1ccc(NC(=O)[C@@H](NC(=O)C(F)(F)c2cccc(C#N)c2)C2CCCCC2)c(F)c1` [Compound 363] is less than 0.01 µM. As for `CCC(=O)N[C@H](Cc1ccc(NC(=O)[C@@H](NC(=O)c2nn(C)c3c2CNCC3)C2CCCCC2)c(F)c1)C(=O)N1CCN(C)CC1` [Compound 706], the “IL-17A/A inhibition (pIC50)” value is “X2b (compounds were evaluated up to 1 uM and inhibited activity at 1 uM by less than 20%)”. Take `CCn1nccc1C(=O)N[C@H](C(=O)Nc1ccc([C@H](C)[C@@H](NC(=O)c2cnns2)C(=O)N2CCN(C)CC2)cc1F)C1CCCCC1` [Compound 310]: the IC50 is 0.01 to 0.1 µM. In the case of `CCC(=O)N[C@@H](C(=O)N1CCN(C)CC1)[C@@H](C)c1ccc(NC(=O)C(NC(=O)c2nonc2CC)C(CC)c2ccc(Cl)cc2)c(F)c1` (single isomer, unassigned) [Compound 565], the IC50 was less than 0.01 µM. As to `CCC(=O)N[C@@H](C(=O)N1CCN(Cc2ccccn2)CC1)[C@@H](C)c1ccc(NC(=O)[C@@H](NC(=O)c2ccnn2CC)C2CCCCCC2)c(F)c1` [Compound 348], the IC50 was less than 0.01 µM.

For `CCC(=O)N[C@@H](C(=O)N1CCN(C)[C@@H](C)C1)[C@@H](C)c1ccc(NC(=O)[C@@H](NC(=O)c2ccnn2CC)[C@H]2CC[C@H](C)CC2)c(F)c1` [Compound 435], the IC50 was less than 0.01 µM. Regarding `CCC(=O)N[C@@H](C(=O)N1CCN(C)CC1)[C@@H](C)c1ccc(NC(=O)C(NC(=O)c2ccnn2CC)C(CC)c2ccc(F)cc2)c(F)c1` (single isomer, unassigned) [Compound 556], the “IL-17A/A inhibition (pIC50)” value is “X2a (compounds were evaluated up to 1 uM and did not inhibit activity by >80%, however they showed some activity at 1 uM (less than 80% and more than 20%))”. For `CCn1nccc1C(=O)N[C@H](C(=O)Nc1ccc([C@H](C)[C@@H](NC(=O)c2ccnn2C2CCOCC2)C(=O)N2CCC(C)(O)CC2)cc1F)[C@H]1CC[C@H](C)CC1` [Compound 417], the IC50 was less than 0.01 µM.

Regarding `CCC(=O)N[C@@H](C(=O)N1CCN(C)CC1)[C@@H](C)c1ccc(NC(=O)[C@@H](NC(=O)c2cccn2CC)[C@H]2CC[C@H](C)CC2)c(F)c1` [Compound 280], the IC50 was 0.01 to 0.1 µM.

For the molecule `C[C@@H](c1ccc(NC(=O)[C@@H](NC(=O)C(F)(F)c2cccc(C#N)c2)C2CCCCC2)c(F)c1)[C@@H](NC(=O)NC1CCC1)C(=O)N1CCN(C)CC1` [Compound 318], the IC50 was 0.01 to 0.1 µM. With `CC(C)n1nccc1C(=O)N[C@H](C(=O)Nc1ccc([C@H](C)[C@@H](NC(=O)c2ccnn2C2CCC2)C(=O)N2CCN(C)CC2)cc1F)[C@H]1CC[C@H](C)CC1` [Compound 398], the IC50 was less than 0.01 µM. On to `CCC(=O)N[C@@H](C(=O)N1CCN(C)CC1)[C@@H](C)c1ccc(NC(=O)[C@@H](NC(=O)C(F)(F)c2ccccc2C#N)C2CCCCC2)c(F)c1` [Compound 638], for which the IC50 is 0.1 to 10 µM. For the molecule `CC(C)n1nccc1C(=O)N[C@H](C(=O)Nc1ccc([C@H](C)[C@@H](NC(=O)c2ccnn2C2CC2)C(=O)N2CCN(C)CC2)cc1F)[C@H]1CC[C@H](C)CC1` [Compound 399], the IC50 is less than 0.01 µM.

For `CCC(=O)N[C@@H](C(=O)N1CCN(C)CC1)[C@@H](CC)c1ccc(NC(=O)[C@@H](NC(=O)C(F)(F)c2ccc(OC)nc2)C2CCCCCC2)cc1` [Compound 227], the IC50 was 0.01 to 0.1 µM. On to `CCC(=O)N[C@@H](C(=O)N1CCC(Oc2ccccc2)CC1)[C@@H](C)c1ccc(NC(=O)[C@@H](NC(=O)c2ccnn2CC)[C@H]2CC[C@H](C)CC2)c(F)c1` [Compound 372], for which the IC50 was 0.01 to 0.1 µM. On to `CCC(=O)N[C@@H](C(=O)N1CCN(C)[C@@H](C)C1)[C@@H](C)c1ccc(NC(=O)[C@@H](NC(=O)c2nonc2CC)[C@H]2CC[C@H](C)CC2)c(F)c1` [Compound 460], for which the IC50 was less than 0.01 µM. Regarding `CCC(=O)N[C@@H](C(=O)N1CCN(C)CC1)[C@@H](C)c1ccc(NC(=O)[C@@H](NC(=O)c2coc3cc(OC)ccc23)C2CCCCCC2)c(F)c1` [Compound 258], the IC50 was less than 0.01 µM.

In the case of `CCc1nonc1C(=O)N[C@H](C(=O)Nc1ccc([C@H](C)C(NC(=O)C(C)F)C(=O)N2CCN(C)[C@@H](C)C2)cc1F)[C@H]1CC[C@H](C)CC1` (single isomer, unassigned) [Compound 594], the IC50 is less than 0.01 µM. In the case of `CCC(=O)N[C@@H](C(=O)N1CCN(C)CC1)[C@@H](C)c1ccc(NC(=O)[C@@H](NC(=O)C(F)(F)C2CCN(C)CC2)C2CCCCC2)c(F)c1` [Compound 734], the “IL-17A/A inhibition (pIC50)” value is “X2a (compounds were evaluated up to 1 uM and did not inhibit activity by >80%, however they showed some activity at 1 uM (less than 80% and more than 20%))”. For `CCC(=O)N[C@@H](C(=O)N1CCC(C)(OC)CC1)[C@@H](C)c1ccc(NC(=O)[C@@H](NC(=O)c2ccnn2CC)[C@H]2CC[C@H](C)CC2)c(F)c1` [Compound 437], the IC50 is less than 0.01 µM. For the molecule `CCC(=O)N[C@@H](C(=O)N1CCN(C)CC1)[C@@H](C)c1ccc(NC(=O)C(NC(=O)c2ccnn2CC)C(CC)c2ccc(Cl)cc2)c(F)c1` (single isomer, unassigned) [Compound 563], the “IL-17A/A inhibition (pIC50)” value is “X2b (compounds were evaluated up to 1 uM and inhibited activity at 1 uM by less than 20%)”.

Take `[2H]C([2H])([2H])C1CCC(C(NC(=O)c2nonc2CC)C(=O)Nc2ccc([C@H](C)[C@@H](NC(=O)N(C)C3CC3)C(=O)N3CCN(C)[C@H](C)C3)cc2F)CC1` (single isomer, unassigned) [Compound 615]: the IC50 is less than 0.01 µM. As to `CCC(=O)N[C@H](Cc1ccc(NC(=O)[C@@H](NC(=O)C(F)(F)c2ccncc2)C2CCCCC2)c(F)c1)C(=O)N1CCN(C)CC1` [Compound 712], the “IL-17A/A inhibition (pIC50)” value is “X2a (compounds were evaluated up to 1 uM and did not inhibit activity by >80%, however they showed some activity at 1 uM (less than 80% and more than 20%))”. Regarding `CCC(=O)N[C@H](Cc1ccc(NC(=O)[C@@H](NC(=O)c2ccnn2CC)C2CCCCC2)c(F)c1)C(=O)N1CCN(CCF)CC1` [Compound 679], the IC50 was 0.1 to 10 µM. For `CCC(=O)N[C@H](Cc1ccc(NC(=O)[C@@H](NC(=O)c2conc2CNC(C)=O)C2CCCCC2)c(F)c1)C(=O)N1CCN(C)CC1` [Compound 764], the IC50 was 0.1 to 10 µM.

For the origin of these results see patent US12421212B2, “Substituted benzenecarboxamides as IL-17A modulators” (DiCE Alpha, Inc., priority 2019, dated 2025).
